Experimental data: ChEMBL document CHEMBL1201862, “PubChem BioAssay data set” (2004)
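Each compound was tested at five concentrations against cells in 96-well plates for 48 hours. Here, GI50 denotes the concentration required for 50% inhibition of growth.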 Active and inactive are the calls of the source. No stated cut-off is given here; in the data, active = GI50 up to about 1.1 µM and inactive = higher.

Columns and labels:
Experiment in all cases: DTP human tumour cell line panel, 48 h
[1] = tested on: T47D
[2] = tested on: A549
[3] = tested on: EKVX
[4] = tested on: MOLT-4
[5] = tested on: HT-29
[6] = tested on: ACHN
[7] = tested on: NCI-H23
[8] = tested on: OVCAR-4
[9] = tested on: RXF 393
[10] = tested on: HL-60
[11] = tested on: OVCAR-3
[12] = tested on: SF-539
[13] = tested on: MDA-MB-435
[14] = tested on: K562
[15] = tested on: CAKI-1
[16] = tested on: NCI-H522
[17] = tested on: SW-620
[18] = tested on: HOP-62
[19] = tested on: M14
[20] = tested on: U-251
[21] = tested on: IGROV-1
[22] = tested on: PC-3
[23] = tested on: OVCAR-8
[24] = tested on: MDA-N
[25] = tested on: MDA-MB-231
[26] = tested on: SF-268
[27] = tested on: SNB-19
[28] = tested on: A498
[29] = tested on: BT-549
[30] = tested on: HCT-116
[31] = tested on: NCI-H226
[32] = tested on: HCT-15
[33] = tested on: UO-31
[34] = tested on: MCF7
[35] = tested on: SK-MEL-2
[36] = tested on: OVCAR-5
[37] = tested on: HCC 2998
[38] = tested on: HOP-92
[39] = tested on: LOX IMVI
[40] = tested on: SK-MEL-5
[41] = tested on: TK-10
[42] = tested on: NCI/ADR-RES
[43] = tested on: NCI-H460
[44] = tested on: Malme-3M
[45] = tested on: SNB-75
[46] = tested on: SK-OV-3
[47] = tested on: DU-145
[48] = tested on: 786-0
[49] = tested on: COLO 205
[50] = tested on: SF-295
[51] = tested on: SR
[52] = tested on: Hs-578T
[53] = tested on: SN12C
[54] = tested on: UACC-257
[55] = tested on: CCRF-CEM
[56] = tested on: RPMI-8226
[57] = tested on: KM12
[58] = tested on: SK-MEL-28
[59] = tested on: UACC-62

Structure (SMILES): CC(C)(C)N1C=[N+](C(C)(C)C)CC1
- GI50 [1]: > 100 µM (inactive)
- GI50 [2]: > 100 µM (inactive)
- GI50 [3]: > 100 µM (inactive)
- GI50 [4]: > 100 µM (inactive)
- GI50 [5]: > 100 µM (inactive)
- GI50 [6]: > 100 µM (inactive)
- GI50 [7]: > 100 µM (inactive)
- GI50 [8]: > 100 µM (inactive)
- GI50 [9]: > 100 µM (inactive)
- GI50 [10]: > 100 µM (inactive)
- GI50 [11]: > 100 µM (inactive)
- GI50 [12]: > 100 µM (inactive)
- GI50 [13]: > 100 µM (inactive)
- GI50 [14]: > 100 µM (inactive)
- GI50 [15]: > 100 µM (inactive)
- GI50 [16]: > 100 µM (inactive)
- GI50 [17]: > 100 µM (inactive)
- GI50 [18]: > 100 µM (inactive)
- GI50 [19]: > 100 µM (inactive)
- GI50 [20]: > 100 µM (inactive)
- GI50 [21]: > 100 µM (inactive)
- GI50 [22]: > 100 µM (inactive)
- GI50 [23]: > 100 µM (inactive)
- GI50 [24]: > 100 µM (inactive)
- GI50 [25]: > 100 µM (inactive)
- GI50 [26]: > 100 µM (inactive)
- GI50 [27]: > 100 µM (inactive)
- GI50 [28]: 38.7 µM (inactive)
- GI50 [29]: > 100 µM (inactive)
- GI50 [30]: > 100 µM (inactive)
- GI50 [31]: > 100 µM (inactive)
- GI50 [32]: > 100 µM
- GI50 [33]: > 100 µM (inactive)
- GI50 [34]: > 100 µM (inactive)
- GI50 [35]: > 100 µM (inactive)
- GI50 [36]: > 100 µM (inactive)
- GI50 [37]: > 100 µM (inactive)
- GI50 [38]: > 100 µM (inactive)
- GI50 [39]: > 100 µM (inactive)
- GI50 [40]: > 100 µM (inactive)
- GI50 [41]: > 100 µM (inactive)
- GI50 [42]: > 100 µM (inactive)
- GI50 [43]: > 100 µM (inactive)
- GI50 [44]: > 100 µM (inactive)
- GI50 [45]: 75 µM (inactive)
- GI50 [46]: > 100 µM (inactive)
- GI50 [47]: > 100 µM (inactive)
- GI50 [48]: > 100 µM (inactive)
- GI50 [49]: > 100 µM (inactive)
- GI50 [50]: > 100 µM (inactive)
- GI50 [51]: > 100 µM (inactive)
- GI50 [52]: > 100 µM (inactive)
- GI50 [53]: > 100 µM (inactive)
- GI50 [54]: > 100 µM (inactive)
- GI50 [55]: > 100 µM (inactive)
- GI50 [56]: > 100 µM (inactive)
- GI50 [57]: > 100 µM (inactive)
- GI50 [58]: > 100 µM (inactive)

Structure (SMILES): CN(/N=C(\C(=O)O)c1ccccc1)C1=NCCCN1
- GI50 [59]: > 100 µM (inactive)
- GI50 [1]: > 100 µM (inactive)
- GI50 [2]: > 100 µM (inactive)
- GI50 [3]: 73.3 µM (inactive)
- GI50 [4]: > 100 µM (inactive)
- GI50 [5]: > 100 µM (inactive)
- GI50 [6]: > 100 µM (inactive)
- GI50 [7]: > 100 µM (inactive)
- GI50 [8]: > 100 µM (inactive)
- GI50 [9]: > 100 µM (inactive)
- GI50 [10]: > 100 µM (inactive)
- GI50 [11]: > 100 µM (inactive)
- GI50 [12]: > 100 µM (inactive)
- GI50 [13]: > 100 µM (inactive)
- GI50 [14]: > 100 µM (inactive)
- GI50 [15]: > 100 µM (inactive)
- GI50 [16]: > 100 µM (inactive)
- GI50 [17]: > 100 µM (inactive)
- GI50 [18]: > 100 µM (inactive)
- GI50 [20]: > 100 µM (inactive)
- GI50 [21]: > 100 µM (inactive)
- GI50 [22]: > 100 µM (inactive)
- GI50 [23]: > 100 µM (inactive)
- GI50 [24]: > 100 µM (inactive)
- GI50 [25]: > 100 µM (inactive)
- GI50 [26]: > 100 µM (inactive)
- GI50 [28]: > 100 µM (inactive)
- GI50 [29]: > 100 µM (inactive)
- GI50 [30]: > 100 µM (inactive)
- GI50 [31]: > 100 µM (inactive)
- GI50 [32]: > 100 µM
- GI50 [33]: > 100 µM (inactive)
- GI50 [34]: > 100 µM (inactive)
- GI50 [35]: > 100 µM (inactive)
- GI50 [36]: > 100 µM (inactive)
- GI50 [37]: > 100 µM (inactive)
- GI50 [38]: 80.9 µM (inactive)
- GI50 [39]: > 100 µM (inactive)
- GI50 [40]: > 100 µM (inactive)
- GI50 [41]: > 100 µM (inactive)
- GI50 [42]: > 100 µM (inactive)
- GI50 [43]: > 100 µM (inactive)
- GI50 [44]: > 100 µM (inactive)
- GI50 [45]: > 100 µM (inactive)
- GI50 [46]: > 100 µM (inactive)
- GI50 [47]: > 100 µM (inactive)
- GI50 [48]: > 100 µM (inactive)
- GI50 [49]: > 100 µM (inactive)
- GI50 [50]: > 100 µM (inactive)
- GI50 [51]: > 100 µM (inactive)
- GI50 [52]: > 100 µM (inactive)
- GI50 [53]: > 100 µM (inactive)
- GI50 [54]: > 100 µM (inactive)
- GI50 [55]: > 100 µM (inactive)
- GI50 [56]: > 100 µM (inactive)
- GI50 [57]: > 100 µM (inactive)
- GI50 [58]: > 100 µM (inactive)

Structure (SMILES): COc1cc(C2c3cc4c(cc3OC(N3CCOCC3)C2C)OCO4)cc(OC)c1OC (stereo not drawn)
- GI50 [59]: 0.537 µM (active)
- GI50 [1]: 0.323 µM (active)
- GI50 [2]: 1.56 µM (inactive)
- GI50 [3]: 15.8 µM (inactive)
- GI50 [4]: 1.09 µM (active)
- GI50 [5]: 0.237 µM (active)
- GI50 [6]: 3.85 µM (inactive)
- GI50 [7]: 1.38 µM (inactive)
- GI50 [8]: > 23.7 µM (inactive)
- GI50 [9]: 0.282 µM (active)
- GI50 [10]: 0.412 µM (active)
- GI50 [11]: 0.589 µM (active)
- GI50 [12]: 0.462 µM (active)
- GI50 [13]: 0.179 µM (active)
- GI50 [14]: 0.397 µM (active)
- GI50 [15]: 0.522 µM (active)
- GI50 [16]: 0.614 µM (active)
- GI50 [17]: 0.59 µM (active)
- GI50 [18]: 3.63 µM (inactive)
- GI50 [19]: 0.708 µM (active)
- GI50 [20]: 0.893 µM (active)
- GI50 [21]: 1.31 µM (inactive)
- GI50 [22]: 1.19 µM (inactive)
- GI50 [23]: 1.62 µM (inactive)
- GI50 [24]: 0.148 µM (active)
- GI50 [25]: 2.84 µM (inactive)
- GI50 [26]: 10.5 µM (inactive)
- GI50 [27]: 0.838 µM (active)
- GI50 [28]: 0.743 µM (active)
- GI50 [29]: 4.29 µM (inactive)
- GI50 [30]: 0.65 µM (active)
- GI50 [31]: 2.6 µM (inactive)
- GI50 [32]: 0.418 µM
- GI50 [33]: 1.86 µM (inactive)
- GI50 [34]: 0.51 µM (active)
- GI50 [35]: 2.02 µM (inactive)
- GI50 [36]: 3.68 µM (inactive)
- GI50 [37]: 1.23 µM (inactive)
- GI50 [38]: 0.7 µM (active)
- GI50 [39]: 1.57 µM (inactive)
- GI50 [40]: 0.378 µM (active)
- GI50 [41]: 4.42 µM (inactive)
- GI50 [42]: 0.335 µM (active)
- GI50 [43]: 1.34 µM (inactive)
- GI50 [44]: 3.79 µM (inactive)
- GI50 [45]: 5.19 µM (inactive)
- GI50 [46]: 3.27 µM (inactive)
- GI50 [47]: 0.368 µM (active)
- GI50 [48]: 3.18 µM (inactive)
- GI50 [50]: 0.519 µM (active)
- GI50 [51]: 0.466 µM (active)
- GI50 [52]: 0.226 µM (active)
- GI50 [53]: 4.18 µM (inactive)
- GI50 [54]: 0.748 µM (active)
- GI50 [55]: 0.457 µM (active)
- GI50 [56]: 0.778 µM (active)
- GI50 [57]: 0.367 µM (active)
- GI50 [58]: 17.2 µM (inactive)
